Assay [1] has as its system 10-week-old ovariectomized (OVX) mice. The assay can be described thus: Ovariectomized (OVX) mouse model. The assay is classed as in vivo. The note with it: for maximum stress: femur three-point bending; for maximum stress / cortical bone thickness: single IV injection of conjugate or four weeks of PTH. The text has this:
FIG. 21 depicts histomorphometric analyses of the 5th lumbar vertebral bodies after LLP2A-Ale treatment of 10-week-old ovariectomized (OVX) mice, showing increases in osteoblast numbers, activities and bone formation rate/bone surface (BFR/BS) post-treatment. Analyses included trabecular bone area (%), osteoblast surface (Ob/BS), mineralizing surface (MS/BS) activities and BFR/BS (P<0.05).
Representative fluorescent images from the trabecular bone at the 5th LVB (Top panel: white arrowheads illustrate osteoblasts; Bottom panel: yellow arrows illustrate double labeled trabecular bone surfaces).
FIG. 23 depicts histomorphometry analyses of the right mid-femurs included bone formation at the endosteal (Ec) or periosteal (Ps.) bone surfaces, and cortical bone thickness of 10-week-old ovariectomized (OVX) mice. […] Three-point bending was performed on left femurs to obtain maximum stress of the femurs.
Short yellow arrows illustrated double labeled endocortical bone surfaces. (a, p<0.05 versus Sham; b, P<0.05 vs. OVX+PBS, c, P<0.05 vs. OVX+LLP2A; d, P<0.05 vs. OVX+Ale. Data are represented as Mean±SD).

The subject of assay [2] is bone marrow cells undergoing osteogenic differentiation. Description: Rainbow bead cell-binding assay. The format is cell-based, mouse. The note with it: cells cultured in osteogenic medium for 7 days, incubated with rainbow beads. The protocol: Mouse MSCs were purchased from Invitrogen (Cat#S1502-100), cultured in osteogenic medium for 7 days and incubated with rainbow beads for one hour. […] Original magnification 10× on the right and 20× on the left of the top panel.
A new color-encoding method that facilitates high-throughput screening of OBOC combinatorial libraries was developed. This method differs from the traditional methods used to monitor integrin expressions in the MSCs, i.e., the use of antibody-based fluorescence-activated cell sorting (FACS) or immunoblotting. In the present method, polymer beads displaying chemical compounds or families of compounds were stained with oil-based organic dyes that are used as coding tags. […] These rainbow beads were prepared in a multiplex manner such that each ligand reacted to one or a series of integrins that were coded one color, See FIG. 7 (Luo, J., et al., J Comb Chem, 2008, 10(4): p. 599-604). This rainbow bead technique was then applied to determine the integrin profile on the cell surfaces.
In FIG. 7, bone marrow cells were cultured in osteogenic medium for 7 days and incubated with rainbow beads. The purple beads that coded with LLP2A, the ligand with high affinity and specificity against α4β1, were covered with layers of cells identified by green arrows. […]

A further assay deals with NOD/SCID/MPSVII mice. The assay can be described thus: huMSC transplantation with LLP2A-Ale in immunodeficient mice. The format is in vivo, mouse. The note with it: vertebral body, three weeks after single injection of huMSC with or without compound. From the text:
Human MSCs (huMSCs) were obtained and injected together with LLP2A-Ale to immunodeficient mice, NOD/SCID/mucopolysaccharidosis type VII (MPSVII). This mouse strain lacked the β-glucuronidase (GUSB) enzyme. The donor cells could be easily detected using biochemical detection of β-glucuronidase (See Meyerrose, T. E., et al., Stem Cells, 2007. 25(1): p. 220-7; Meyerrose, T. E., et al., Stem Cells, 2008. 26(7): p. 1713-22). At three-month of age, the mice received a single intravenous (i.v.) injection of either vehicle (100 μl PBS/mouse), huMSCs (5×10^5/100 μl/PBS/mouse), huMSCs+LLP2A (5 nM/mouse) or huMSCs+LLP2A-Ale (500 ng/mouse; total compound weight 3.5 μg, with alendronate concentration of 500 ng/mouse). The alendronate dose we used for the study was approximately one-fifth of the therapeutic dose for the treatment of osteoporosis (See Colon-Emeric, C. S., JAMA, 2006, 296(24): p. 2968-9; Ma, Y. L., et al., Endocrinology, 2003. 144(5): p. 2008-15). […] HuMSC, as shown by GUSB+red stain, were only present at the trabecular bone surface in the LLP2A-Ale-treated group (lower panel). There was no demonstrable GUSB activity in the lung, liver, kidney and LVB that received PBS (top panels) or huMSCs (middle panel). Cancellous bone mass in the vertebral body was—more than 40% higher in the group treated with MSC+LLP2A-Ale (cancellous bone volume, BV/TV 13.9±2.2%) compared to PBS (BV/TV 9.4±1.7%), MSC (BV/TV 10.2±1.9%) or MSC+LLP2A (BV/TV 10.5±0.5%) controls three weeks after a single injection of huMSC and LLP2A-Ale.
In FIG. 8, Three-month-old MSPVII mice received a single intravenous injection of either of PBS, huMSC (5×10^5) or huMSC+LLP2A or LLP2A-Ale. The mice were sacrificed 24 hours later. Following sacrifice, small portions of organ including lumbar vertebral bodies (LVB) were harvested and frozen in Optimal Cutting Temperature embedding media. The sections were stained using naphthol-AS-BI-β-Dglucuronide (GUSB) as a substrate. Representative sections from lung, liver, kidney and lumbar vertebral (LVB) trabecular bone regions were presented. […] Isolated GUSB-positive cells were also observed within bone marrow of the LVB in […] group.
The NOD-SCID MPSVII strain was the result of extensive backcrossing of the mutant GUSB allele from the B6.C-H-2^bm1/ByBirgus^mps/+ mouse onto the NOD/LtSz-scid background. Animals were bred and maintained at the Stem Cell Department of the UC Davis Medical Center under approved animal care protocols. Affected animals were generated by breeding mice heterozygous for the MPSVII mutation. Homozygous GUSB-deficient pups were identified at birth by biochemical analysis of toe tissue.
Serum levels of the amino terminal propeptide of type 1 procollagen (P1NP), osteocalcin and C-terminal telopeptides of type I collagen (CTX-I) were measured using mouse sandwich ELISA kits from Biomedical Technologies (Stroughton, Mass.) or Immunodiagnostic System (Fountain Hills, Ariz.). The manufacturer's protocols were followed and all samples were assayed in duplicate. A standard curve was generated from each kit and the absolute concentrations were extrapolated from the standard curve. The coefficients of variations (CVs) for inter-assay and intra-assay measurements were less than 10% for all assays and are similar to the manufacturer's references (Yao, W., et al., Arthritis Rheum, 2008, 58(6): p. 1674-86; Yao, W., et al., Arthritis Rheum, 2008, 58(11): p. 3485-3497).
After fixation in 4% paraformaldehyde, the right distal femurs, mid-femurs and the 5th lumbar vertebral bodies were dehydrated in graded concentrations of ethanol and xylene and embedded un-decalcified in methyl methacrylate. The frontal sections (8 μm thick) were cut using a vertical bed microtome (Leica/Jung 2265) and affixed to slides coated with a 2% gelatin solution. Unstained 8-μm-thick sections were used for assessing fluorochrome labeling and dynamic changes in bone. […]

For a further assay, the system named is 129SvJ mice. The format is in vivo, mouse.
In a further assay the target is integrin α4β1 (Homo sapiens, UniProt P05556+P13612). The note with it: cited from earlier work.
Sequence of integrin α4β1 (P13612 34-1032): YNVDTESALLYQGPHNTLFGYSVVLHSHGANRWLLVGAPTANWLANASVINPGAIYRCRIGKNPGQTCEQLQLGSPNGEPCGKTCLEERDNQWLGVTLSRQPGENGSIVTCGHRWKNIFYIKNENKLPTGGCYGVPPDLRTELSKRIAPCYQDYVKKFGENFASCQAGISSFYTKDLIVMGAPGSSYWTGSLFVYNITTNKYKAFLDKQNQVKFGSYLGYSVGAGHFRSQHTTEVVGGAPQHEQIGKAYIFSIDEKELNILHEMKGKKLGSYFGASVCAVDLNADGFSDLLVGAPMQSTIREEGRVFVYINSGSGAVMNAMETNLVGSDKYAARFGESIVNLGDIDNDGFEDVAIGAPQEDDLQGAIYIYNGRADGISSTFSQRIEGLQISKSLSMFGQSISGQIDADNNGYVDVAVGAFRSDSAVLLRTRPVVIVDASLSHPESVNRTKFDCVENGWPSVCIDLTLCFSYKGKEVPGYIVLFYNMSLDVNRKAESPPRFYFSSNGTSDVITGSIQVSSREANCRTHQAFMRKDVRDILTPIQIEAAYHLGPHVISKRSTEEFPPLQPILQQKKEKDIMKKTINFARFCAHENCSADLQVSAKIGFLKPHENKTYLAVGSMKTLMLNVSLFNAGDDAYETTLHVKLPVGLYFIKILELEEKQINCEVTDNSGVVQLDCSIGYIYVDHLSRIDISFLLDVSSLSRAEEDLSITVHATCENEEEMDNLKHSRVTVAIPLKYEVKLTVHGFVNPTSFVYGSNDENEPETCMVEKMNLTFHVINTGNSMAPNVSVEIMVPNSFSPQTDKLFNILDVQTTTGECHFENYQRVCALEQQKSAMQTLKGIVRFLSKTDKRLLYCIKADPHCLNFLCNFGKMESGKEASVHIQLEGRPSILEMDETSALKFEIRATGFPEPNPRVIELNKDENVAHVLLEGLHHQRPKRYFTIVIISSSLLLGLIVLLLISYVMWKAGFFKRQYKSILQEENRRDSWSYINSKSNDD
Sequence of integrin α4β1 (P05556 21-798): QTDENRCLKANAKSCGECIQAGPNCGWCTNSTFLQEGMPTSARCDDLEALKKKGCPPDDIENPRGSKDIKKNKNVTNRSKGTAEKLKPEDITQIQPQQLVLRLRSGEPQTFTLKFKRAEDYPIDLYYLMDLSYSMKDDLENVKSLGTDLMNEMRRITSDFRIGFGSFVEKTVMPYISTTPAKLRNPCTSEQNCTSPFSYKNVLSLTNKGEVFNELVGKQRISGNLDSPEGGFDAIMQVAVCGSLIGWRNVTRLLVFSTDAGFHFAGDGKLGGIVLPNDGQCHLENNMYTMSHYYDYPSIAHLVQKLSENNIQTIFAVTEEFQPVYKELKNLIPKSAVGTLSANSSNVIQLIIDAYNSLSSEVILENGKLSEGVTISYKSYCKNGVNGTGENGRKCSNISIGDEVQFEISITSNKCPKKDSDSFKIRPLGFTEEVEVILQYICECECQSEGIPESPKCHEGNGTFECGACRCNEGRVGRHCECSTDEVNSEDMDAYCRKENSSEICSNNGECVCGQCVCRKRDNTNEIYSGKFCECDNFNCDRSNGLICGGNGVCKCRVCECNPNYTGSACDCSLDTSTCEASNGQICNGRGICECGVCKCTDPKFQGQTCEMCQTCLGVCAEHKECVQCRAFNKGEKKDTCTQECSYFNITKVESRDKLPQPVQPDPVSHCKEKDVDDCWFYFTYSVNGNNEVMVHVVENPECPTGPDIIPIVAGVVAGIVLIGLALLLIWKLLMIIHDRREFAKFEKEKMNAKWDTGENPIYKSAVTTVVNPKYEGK
Another assay concerns C57BL/6 mice. The assay can be described thus: Guiding GFP-labeled mouse MSCs to bone. The assay is classed as in vivo. The settings on record: for osteocalcin levels: 0.9 nmol/mouse I.P. one hour after GFP-MSC I.V. The protocol:
LLP2A-Ale or LLP2A-Ale (1) were dissolved in 0.9% normal saline and injected I.P. to the mice one hour after MSC at a final solution of 0.9 nmol/mouse. Mice were sacrificed either at 3 days or 3 weeks. Osteocalcin, a bone formation marker, was measured at both 3 days and 3 weeks post-treatments. The lumbar vertebral bodies from the 3-day treatment groups were frozen and sectioned with cryostat. The sections were then stained with anti-GFP antibody. The transplanted MSCs were stained in brown.

This is an account of results in patent US9119884B2, “LLP2A-bisphosphonate conjugates for osteoporosis treatment” (The Regents of the University of California, priority 2010, dated 2015).

`NCCCC(O)(P(=O)(O)O)P(=O)(O)O` [Ale, Alendronate, reference compound]: in assay [1], the maximum stress result is reported as “not significantly altered”. In addition, the cortical bone thickness entry in assay [1] (mid-femur) is “not significantly altered”.

As usually defined, the IC50 is the concentration that gives 50% inhibition. Turning to “LLP2A: bisaryl urea peptidomimetic, highly potent and selective ligand for the activated form of α4β1 integrin [reference compound]”, the “cell binding to ligand-coded rainbow beads (affinity)” value in assay [2] was “high affinity”. The “cancellous bone volume, BV/TV” value in the assay with NOD/SCID/MPSVII mice was determined as 10.5±0.5%. Besides, in the assay with 129SvJ mice (four weeks after injections), the “bone formation rate at endocortical and periosteal surfaces of the mid-femurs” value was “significantly increased”. Also, the “proliferating cell populations (BrdU)” value in the assay on 129SvJ mice (two days after i.v. injection, lumbar vertebral sections) is “increased the number of proliferating cell populations within the marrow cavity”. Further, the maximum stress result in assay [1] was “not significantly altered”. In assay [1] (mid-femur), the cortical bone thickness result is reported as “not significantly altered”. Also, the IC50 in the assay with integrin α4β1 is 2 pM.

For the molecule LLP2A-Alendronate (1) [LLP2A-Ale (1)], the “location of transplanted MSCs (anti-GFP staining)” value with C57BL/6 mice (lumbar vertebral bodies, three days) was “observed within bone marrow and adjacent to the trabecular bone surfaces”. Also, the osteocalcin levels result with C57BL/6 mice (three days) and in the assay with C57BL/6 mice (three weeks) was “significantly increased” throughout.

B1: PTH: PTH, comparator treatment given for four weeks in OVX mice (peptide, UniProt P01270 32-115, looked up)
Parathyroid hormone: SVSEIQLMHNLGKHLNSMERVEWLRKKLQDVHNFVALGAPLAPRDAGSQRPRKKEDNVLVESHEKSLGEADKADVNVLTKAKSQ
modifications: Parathyroid hormone
As to B1, the maximum stress entry in assay [1] is “not significantly altered”. Moreover, in assay [1] (mid-femur, vs OVX), the endocortical bone formation result was “increases”. Besides, in assay [1] (mid-femur), the cortical bone thickness result is reported as “not significantly altered”.
